Patent US12458622B2, “Methods of treatment of coronavirus-induced inflammation conditions” (priority 2020, dated 2025)
Like-named read-outs stand apart in the source and are kept apart here.

Legend:
[1] = pH of solution in saline; assay type: physicochemical; details: 25 mg in 25 ml of saline
Experimental: In some embodiments, the compounds of the invention are provided as part of a kit for infusion. The kit contains from about 25 mg to about 250 mg of the compound of Formula I or II in a volume of buffer or saline from about 25 ml to about 250 ml. The pH of saline or buffer pH ranges from about 5.8 to about 6.8. […] Alternatively, the buffer can be Ringer's lactate (pH 6.5). Alternatively yet, the buffer can be citrate buffer (pH 6.0).

[2] = system: APP/PS1 mice; test: Recruitment of microglial cells around amyloid plaques; details: mouse, in vivo
[3] = system: Wistar Rats; details: 4% cromolyn 0, 4, 8, 16 mg/day, 3 month; cited from earlier work
[4] = system: BV2 microglial cells; test: Aβ42 uptake, confocal microscopy and ELISA; assay type: cell-based; details: naive BV2 cells, 16 hours pretreatment then 2 hours with Aβ42, vs DMSO
Experimental: After incubation, the cells were labeled with a plasma membrane dye (PM, green) and imaged.

[5] = system: Rhesus Monkeys; details: cited from earlier work
[6] = system: BV2 cells stably expressing CD33 (BV2-CD33WT); test: Aβ42 uptake, ELISA; assay type: cell-based; details: 16 hours pretreatment then 2 hours with Aβ42, vs DMSO
[7] = system: Dog; details: cited from earlier work
[8] = system: Stump-tailed Monkeys; details: cited from earlier work
[9] = system: Rat; details: cited from earlier work
[10] = system: TgSOD1^G93A mice; test: Meso Scale Discovery multi-spot cytokine assay in spinal cord and plasma of TgSOD1 mice; details: 6.3 mg/kg i.p.
[11] = cited from earlier work
[12] = system: Rhesus Monkeys; details: daily IV dosing at 0, 2, 10 and 50 mg/kg, 6 months; cited from earlier work
[13] = system: HMC3 human microglia cells; test: Cell viability assay by AO/PI stain; assay type: cell-based; details: 0.3 μM, TNF-α 0.3 μg/mL
Experimental: Human microglial cell line HMC3 (CRL-3304) was purchased from ATCC (American Type Culture Collection). HMC3 cell line was cultured in DMEM medium with 10% FBS, 1% L-glutamine, and 1% penicillin/streptomycin. Cells were maintained in 37° C. incubator at 5% CO2.
HMC3 cells were resuspended, counted using the LUNA-II Automated Cell Counter, seeded in the 6-well plate (300 K cells/2 mL medium/well), and incubated overnight to allow cells to attach. Cells were treated with TNF-α or IFN-γ at five different concentrations (0, 10, 30, 100, 300 ng/mL) for 24 hr to induce cell activation. The supernatant medium was completely aspirated and 1 mL of fresh DMEM was added to wash the cell layer to remove detached cells and debris. The attached cells were resuspended and washed with PBS. Cells were washed with FACS buffer (2% FBS in PBS) prior to incubation with Zombie Violet Fixable Viability Dye (#423114, Biolegend, 1:500 dilution) and Human Fe Receptor Blocking Solution (#422302, Biolegend, 1:20) diluted in FACS buffer at RT for 10 min in the dark. Cells were then washed with FACS buffer and incubated at RT for 20 min with the following cell-surface antibodies: FITC anti-MHC II (#361706, Biolegend), PerCP/Cy5.5 anti-CD11b (#301328, Biolegend), BV605 anti-CD40 (#334336, Biolegend), PE anti-CD86 (#374206, Biolegend), PE/Cy7 anti-CD163 (#326514, Biolegend), APC anti-CD206 (#321110, Biolegend), and PerCP/Cy5.5 anti-CD14 (#367110, Biolegend). All of the cell-surface antibodies were diluted 1:20 in FACS buffer. Cells were permeabilized using the Transcription Factor Fixation/Permeabilization Buffer Set (#424401, Biolegend). Then cells were incubated with the following intracellular antibodies: APC/Cy7 anti-CD68 (#333822, Biolegend), purified anti-IBA1 (#PA5-27436, Invitrogen), Goat anti-Rabbit-Alexa Fluor 647 (#A21245, Invitrogen), purified anti-GFAP (#644702, Biolegend), and Goat anti-Mouse-Alexa Fluor 488 (#11029, Invitrogen). All of the intracellular antibodies were diluted 1:100 in the Permeabilization buffer (lx). Cells were washed with Permeabilization buffer and fixed in Fixation Buffer (#420801, Biolegend). Flow cytometry was performed using the Attune NxT Acoustic Focusing Cytometer (Thermo Fisher Scientific). Analysis of flow cytometry data was performed via FCS Express 7 (DeNovo Software).
Cell viability was assessed with a LUNA-FL Automated fluorescence cell counter. Viable nucleated cells show green fluorescence and dying nucleated cells show red fluorescence. 18 µL of sample was mixed with 2 μL Acridine Orange/Propidium Iodide (AO/PI) Stain.
All the data were presented as mean±standard error from at least three times, each done in triplicate. The statistical significance between two groups was determined by Student's t test, whereas the comparisons of multiple groups were carried out by one-way ANOVA, followed by Bonferroni's post-test using GraphPad Prism 7 (GraphPad Software, Inc.). A probability value of * p<0.05 was considered to be significant.

[14] = system: Stump-tailed Monkeys; details: 20 mg cromolyn and lactose capsules, 4, 16 and 72 capsules/day, 17 weeks; cited from earlier work
[15] = system: Rabbit; details: Oral; cited from earlier work
[16] = TgSOD1-Cromolyn vs TgSOD1-Vehicle, p=0.0273

O=C(O)c1cc(=O)c2c(OCC(O)COc3cccc4oc(C(=O)O)cc(=O)c34)cccc2o1 [cromolyn]
pH [1]: 6.8 | Recruitment of microglial cells around amyloid plaques [2]: increased recruitment of microglial cells | General toxicity [3]: No general toxic effects. | Aβ42 uptake [4]: increased Aβ42 uptake | Mortality ([5]; single IV dose of 5, 50, 500, 1000 mg/kg, 7-day observation): There were no mortalities. | Clinical signs and weight ([5]; single IV dose, at 500 and 1000 mg/kg): Slight ataxia and weight | Internalized Aβ42 [6]: increased levels of internalized Aβ42 | LD50 Value ([7]; IV): >1600 mg/kg | LD50 Value ([7]; Oral): >4 gm/kg | Survival until the scheduled necropsy ([8]; single IV dose 333 mg/kg, 4 to 10-day observation): given 333 mg/kg survived | Clinical signs ([8]; single IV dose 5082 mg/kg): stertorous breathing, | Time to death of one monkey ([8]; single IV dose 5082 mg/kg): mg/kg died within 4 hours | LD50 Value ([9]; IP): >4 gm/kg | LD50 Value ([9]; IV): >4 gm/kg | LD50 Value ([9]; Oral): >11 gm/kg | LD50 Value ([9]; SC): 6 gm/kg | IL-10 level in plasma ([10]; TgSOD1-Cromolyn vs TgSOD1-Vehicle, p=0.0095): significantly decreased | IL-2 level in plasma ([10]; TgSOD1-Cromolyn vs TgSOD1-Vehicle, p=0.0211): significantly decreased | IL-6 level in plasma [10, 16]: significantly decreased | TNFα level in spinal cord [10, 16]: significant decrease | TNFα level in plasma ([10]; TgSOD1-Cromolyn vs TgSOD1-Vehicle, p=0.110): trend towards a decrease | IL-13 level in plasma ([10]; between groups, FIG. 2A): no statistically significant difference | IL-5 level in plasma ([10]; between groups, FIG. 2C): no statistically significant difference | Adverse effects in repeat dose studies ([11]; all routes of administration): No adverse effects | Renal toxicity ([11]; dosing of high concentration, precipitation in the renal tubules): renal damage was observed | Body weight, observations, clinical laboratory results, organ weights, gross and microscopic pathology [12]: within normal limits and | TNF-α induced cell death [13]: significantly reduced cell death | Body weight [14]: Some weight loss. | LD50 Value [15]: >8 gm/kg
